Measured values: patent US8492313B2, “Synergistic herbicidal combinations comprising tembotrione” (Bayer Cropscience AG, priority 2009, dated 2013)

System: IPOHE (Ipomoea hederacea)
Assay: Post-emergence action against IPOHE
Assay type: in vivo
Protocol: The herbicidal activity of the active substances or active substance mixtures was evaluated visually from the treated variants in comparison with untreated control variants. In this connection, damage to and development of all plant parts above ground was included. The evaluation was carried out according to a percentage scale (100% action=all plants dead; 50% action=50% of the plants and green plant parts dead; 0% action=no recognizable action=as untreated control plot).
Seeds or root pieces of mono- and dicotyledonous weeds are placed in sandy clay soil in pots, covered with earth and secured in a greenhouse under good growing conditions (temperature, air humidity, water supply). Approximately three weeks after sowing, the test plants are treated with the compositions according to the invention. The compositions according to the invention formulated as wettable powders or as emulsion concentrates are sprayed, in spray application, on to the green plant parts in different dosages with a water application rate of 600 to 800 l/ha (corrected). Immediately up to a few days after application, the test receptacles accumulate water over the ground surface by up to 30 mm. With the water application (submerged application), on the other hand, the ground in the closed test receptacle is already covered with the paddy water up to 30 mm at the time of the application. The formulated active substances are here added directly to the paddy water. After an exposure time of the test plants in the greenhouse of an additional 3 to 4 weeks under optimum growing conditions, the effect of the preparations is evaluated visually in comparison with untreated controls. […] In this connection, actions of the combinations according to the invention which exceed the formal sum of the actions of the herbicides when applied individually are frequently observed. The values observed for the tests show, with suitable low dosages, an action of the combinations which lies above the expected values according to Colby.
If the observed activity values already exceed the formal sum of the values for the tests with individual applications, then they likewise exceed the expected value according to Colby, which is calculated according to the following formula and is likewise regarded as an indication of synergy (cf. S. R. Colby in Weeds, 15 (1967), pp. 20 to 22):
In this connection: • A, B=action of the component A or B in percent at a dosage of a or b grams ai/ha. • E=expected value in % at a dosage of a+b grams ai/ha.
The abbreviation IPOHE is the harmful plant Ipomoea hederacea.

[1] = dosage 50 g/ha, visual rating vs untreated control

For CCc1cc(C)cc(CC)c1-c1c(OC(=O)C(C)(C)C)n2n(c1=O)CCOCC2 [B13, pinoxaden], the “Action against IPOHE” value (dosage 30 g/ha) was 15%.
With COc1cnc(OC)n2nc(NS(=O)(=O)c3c(OCC(F)F)cccc3C(F)(F)F)nc12 [B12, penoxsulam] the “Action against IPOHE” value (dosage 15 g/ha) was 20%.
With COCc1cccc(C(O)c2nc(OC)cc(OC)n2)c1NS(=O)(=O)C(F)F (centres unmarked) [B17, pyrimisulfan] the “Action against IPOHE” value [1] was 20%.
In the case of CC(C)N(C(=O)n1cnn(-c2ccc(Cl)cc2Cl)c1=O)c1ccc(F)cc1F [B9, ipfencarbazone], the “Action against IPOHE” value [1] is reported as 25%.
For Cc1nn(C)c(O)c1C(=O)c1ccc(C(F)(F)F)cc1S(C)(=O)=O [B16, pyrasulfotole], the “Action against IPOHE” value (dosage 25 g/ha) was 50%.
For C[C@@H](Oc1ccc(Oc2nc3ccc(Cl)cc3o2)cc1)C(=O)N(C)c1ccccc1F [B10, metamifop], the “Action against IPOHE” value (dosage 75 g/ha) was 15%.
C#CCN(C)c1c(C#N)cnn1-c1nn2c(c1Cl)CCCC2 [B15, pyraclonil] was tested, and the “Action against IPOHE” value (dosage 75 g/ha) was 30%.
With CS(=O)(=O)c1ccc(C(=O)C2C(=O)CCCC2=O)c(Cl)c1COCC(F)(F)F [tembotrione] the “Action against IPOHE” value [1] was 40%.
Nc1cc(Cl)nc(C(=O)O)c1Cl [B2, aminopyralid] was tested, and the “Action against IPOHE” value (dosage 75 g/ha) was 30%.
In the case of COc1cc(OC)n2nc(NS(=O)(=O)c3c(C(F)(F)F)ccnc3OC)nc2n1 [B19, pyroxsulam], the “Action against IPOHE” value (dosage 15 g/ha) is reported as 20%.
CC(C)N(C)S(=O)(=O)NC(=O)c1cc(-n2c(=O)cc(C(F)(F)F)n(C)c2=O)c(F)cc1Cl [B20, saflufenacil] was tested, and the “Action against IPOHE” value (dosage 10 g/ha) was 45%.
For COc1cc(OC)nc(NC(=O)NS(=O)(=O)c2c(C3=NOCC(C)O3)c(Cl)nn2C)n1 (centres unmarked) [B21, 3-chloro-N-[(4,6-dimethoxypyrimidin-2-yl)carbamoyl]-1-methyl-4-(5-methyl-5,6-dihydro-1,4,2-dioxazin-3-yl)-1H-pyrazole-5-sulfonamide], the “Action against IPOHE” value [1] was 15%.
COCC(=O)OC(c1ncccc1S(=O)(=O)NC(=O)Nc1nc(OC)cc(OC)n1)C(C)F (centres unmarked) [B8, flucetosulfuron] was tested, and the “Action against IPOHE” value [1] was 20%.
In the case of Cc1ccc2c(c1)[C@H](Nc1nc(N)nc(C(C)F)n1)[C@@H](C)C2 (some centres unmarked) [B7, indaziflam], the “Action against IPOHE” value (dosage 25 g/ha) is reported as 25%.
For Cn1nc(C(F)(F)F)c(CS(=O)(=O)C2=NOC(C)(C)C2)c1OC(F)F [B18, pyroxasulfone], the “Action against IPOHE” value (dosage 75 g/ha) was 15%.
For Nc1nc(C2CC2)nc(C(=O)[O-])c1Cl.[K+] [B4, aminocyclopyrachlor], the “Action against IPOHE” value [1] was 35%.
In the case of COc1cc(OC)nc(NC(=O)NS(=O)(=O)Nc2ccccc2C(=O)N(C)C)n1 [B11, orthosulfamuron], the “Action against IPOHE” value (dosage 30 g/ha) is reported as 40%.
CC(C)c1nn(C(=O)NC(C)(C)C)c(=O)n1N [B1, amicarbazone] was tested, and the “Action against IPOHE” value (dosage 125 g/ha) was 20%.
With COc1cc(OC)nc(NC(=O)NS(=O)(=O)Nc2ccccc2C(=O)C2CC2)n1 [B6, cyclosulfamuron] the “Action against IPOHE” value [1] was 20%.
CCCc1ccc2nc(Cl)c(S(=O)(=O)NC(=O)Nc3nc(OC)cc(OC)n3)n2n1 [B14, propyrisulfuron] was tested, and the “Action against IPOHE” value [1] was 30%.
